From ChEMBL document CHEMBL1955845, “Antiviral effect of geraniin on human enterovirus 71 in vitro and in vivo” (Bioorg Med Chem Lett, 2012)
In brackets after ≈: the same amount, converted by molar mass. Activity calls are given as the source filed them. The calls are words filed in the database; no cut-off is given here.

Experiments:
Mus musculus = experiment: Toxicity in Human enterovirus 71 MP10 infected ICR mouse at 0.4 to 1 mg/kg, ip qd for 7 days measured up to 14 days; assay type: organism-based; design: dose 0.4-1 mg/kg, route intraperitoneal; conditions: in vivo
Enterovirus A71 [1] = experiment: Antiviral activity against C4 type Human enterovirus 71 MP10 infected in ICR mouse assessed as inhibition of viral replication in muscle at 0.4 mg/kg, ip administered 2 hrs post infection qd for 7 days measured up to 7 days by qRT-PCR analysis; assay type: functional, organism-based; design: dose 0.4 mg/kg; conditions: Muscle tissue
Enterovirus A71 [2] = experiment: Antiviral activity against C4 type Human enterovirus 71 MP10 infected in ICR mouse assessed as recovery at 0.4 mg/kg, ip administered 2 hrs post infection qd for 7 days measured up to 14 days; assay type: functional, organism-based; design: dose 0.4 mg/kg
Enterovirus A71 [3] = experiment: Antiviral activity against C4 type Human enterovirus 71 MP10 infected in ICR mouse assessed as delay in appearance of infection symptoms at 0.4 mg/kg, ip administered 2 hrs post infection qd for 7 days measured up to 14 days; assay type: functional, organism-based; design: dose 0.4 mg/kg
Enterovirus A71 [4] = experiment: Antiviral activity against C4 type Human enterovirus 71 MP10 infected in ICR mouse assessed as delay in paralysis at 0.4 mg/kg, ip administered 2 hrs post infection qd for 7 days measured up to 14 days; assay type: functional, organism-based; design: dose 0.4 mg/kg
Enterovirus A71 [5] = experiment: Antiviral activity against C4 type Human enterovirus 71 MP10 infected in ICR mouse assessed as increase in survival rate at 1 mg/kg, ip administered 2 hrs post infection qd for 7 days measured up to 14 days; assay type: functional; conditions: route intraperitoneal
Enterovirus A71 [6] = experiment: Antiviral activity against C4 type Human enterovirus 71 MP10 infected in ICR mouse assessed as increase in survival rate at 0.4 mg/kg, ip administered 2 hrs post infection qd for 7 days measured up to 14 days; assay type: functional; conditions: route intraperitoneal
Enterovirus A71 [7] = experiment: Antiviral activity against C4 type Human enterovirus 71 FY0805 infected in human RD cells assessed as inhibition of infectious virus yeild at 20 ug/ml treated 2 hrs post infection measured after 32 to 72 hrs by TCID50 assay relative to control; assay type: functional, organism-based
[8] = Selectivity index, ratio of CC50 for human RD cells to IC50 for C4 type Human enterovirus 71 FY0805; assay type: functional
Enterovirus A71 [9] = experiment: Antiviral activity against C4 type Human enterovirus 71 FY0805 infected in human RD cells assessed as inhibition of […] at 20 ug/ml treated 2 hrs post infection measured after 32 to 72 hrs by qRT-PCR analysis relative to control; assay type: functional, organism-based
Enterovirus A71 [10] = experiment: Antiviral activity against C4 type Human enterovirus 71 FY0805 infected in human RD cells assessed as inhibition of viral replication by plaque reduction assay; assay type: functional, organism-based; conditions: Enterovirus A
[11] = Cytotoxicity against human RD cells; assay type: cell-based
Enterovirus A71 [12] = experiment: Antiviral activity against C4 type Human enterovirus 71 MP10 infected in ICR mouse assessed as disappearance of ruffled hair at 0.4 mg/kg, ip administered 2 hrs post infection qd for 7 days measured up to 14 days; assay type: functional, organism-based; design: dose 0.4 mg/kg
Enterovirus A71 [13] = experiment: Antiviral activity against Human enterovirus 71 infected in mouse assessed as increase in survival rate; assay type: functional
Enterovirus A71 [14] = experiment: Antiviral activity against C4 type Human enterovirus 71 MP10 infected in ICR mouse assessed as increase in survival rate at 50 mg/kg, ip administered 2 hrs post infection qd for 7 days measured up to 14 days; assay type: functional; conditions: route intraperitoneal

Row | SMILES | Activity (Mus musculus) | inhibition (Enterovirus A71 [1]) | Activity (Enterovirus A71 [2]) | Activity (Enterovirus A71 [3]) | Activity (Enterovirus A71 [4]) | Activity (Enterovirus A71 [5]) | Activity (Enterovirus A71 [6]) | inhibition (Enterovirus A71 [7]) | Ratio CC50/IC50 [8] | inhibition (Enterovirus A71 [9]) | IC50 (Enterovirus A71 [10]) | CC50 [11] | Activity (Enterovirus A71 [12]) | Activity (Enterovirus A71 [13]) | Activity (Enterovirus A71 [14])
1 | O=C1O[C@H]2[C@@H]3OC(=O)c4cc(O)c(O)c(O)c4-c4c(cc(O)c(O)c4O)C(=O)OC[C@H]2O[C@@H](OC(=O)c2cc(O)c(O)c(O)c2)[C@@H]3OC(=O)c2cc(O)c(O)c3c2[C@@H]2C1=CC(=O)[C@](O)(O3)C2(O)O [GERANIIN] | Non-toxic | Active | Active | Active | Active | 40% | 35% | Active | 20 | Active | 10 µg/mL (≈ 10.5 µM) | 200 µg/mL (≈ 210 µM) | Active |  | 
2 | O[C@H]1[C@H]2c3cc4c(cc3CN3CCC(=C[C@@H]1O)[C@H]23)OCO4 [LYCORINE] |  |  |  |  |  |  |  |  |  |  |  |  |  | 18% | 
3 | NC(=O)c1ncn([C@@H]2O[C@H](CO)[C@@H](O)[C@H]2O)n1 [RIBAVIRIN] |  |  |  |  |  |  |  |  |  |  | 60 µg/mL (≈ 246 µM) |  |  |  | 5%
